Experimental data: patent US20140099354A1, “BIOPASSIVATING MEMBRANE STABILIZATION BY MEANS OF NITROCARBOXYLIC ACID-CONTAINING PHOSPHOLIPIDS IN PREPARATIONS AND COATINGS” (priority 2011, published 2014)

How the values were obtained:
[1] = Abrasion stability and traction work load of coated balloon catheters; assay type: physicochemical
Experimental: Balloon catheters were coated by means of the Langmuir-Schaefer procedure where the balloon segment was aligned longitudinally and coaxial to the solution surface, dipping into the liquid for approx. 1 mm over the entire length. Then the catheter was slowly rotated around its axis 5 times. Phospholipids were dissolved at a concentration of 3 mmol in an ion-free aqueous solution at 50° C. The solution was cooled and given to the coating solution then. In case of incomplete dissolution of the phospholipids or if they separated when cooled, DMSO was added at a concentration of up to 20 vol.-%, preferably up to 10 vol.-%. After coating, the catheters were vacuum dried for 8 hours in order to remove residual solvent.
The tubing was filled with a 10% human albumin solution at a temperature of 35° C. The cable system, which had previously been brought through the tubing was connected to the catheter tip and tracked outside the tubing by reversing pulleys, which allowed exactly vertically traction of the cable that was connected to a motorized winch. The winch was mounted on a digital precision balance. The catheters mounted in this manner were pulled through the tubing system and the weight changes measured by the balance, which represented the traction work load achieved for the passage of the catheter, was recorded continuously. These readings were integrated over time. The resultant values allow estimation of the total shear force that occurred during the passage of the catheter through the tubing system.

[2] = Tissue response to coated silicone implants in vivo after bleomycin; design: species or system Wistar rats; conditions: silicone cushions, subcutaneous, 7 to 90 days
Experimental: Induction of fibrotic tissue production by connective tissue activation as a consequence of implantation of foreign material was examined in an in-vivo animal model. As implant materials, sterile silicone cushions having a diameter of 1 cm were used.
In male Wistar rats (190-240 g) that were fed and housed under identical conditions for one week, general anaesthesia was performed by intramuscular injection of 0.008 mL/100 g ketamine and 0.004 mL/100 g xylocaln chloride 2%. Then the back of the animals was shaved, sterilized and infiltrated with xylocalne chloride. A paravertebral incision was made on both sides with a length of 1.5 cm followed by preparation of the subcutaneous tissue, so that on both sides approx. 2×2 cm cavities were preformed. Hemostasis was achieved by cauterization, if necessary. Then balls of cotton saturated with Bleomycin (cell-pharm GmbH, Hannover, Germany: 1% in 0.9% NaCl solution) were inserted into the cavities for 3 minutes and then removed. Without rinsing the cavities, the implants coated with a nitrated phospholipid were inserted into the cavity on the left side and the implants coated with natural phospholipid into the cavity on the right side. Thereafter, a layer by layer wound closure was performed and a sterile adhesive bandage was applied.
The animals were kept according to standard conditions for 7, 14, 30, 60 and 90 days. At any study time endpoint, two animals were euthanized. After death the well visible and palpable implants were removed using en-block resection technique. The resected specimens were fixed and embedded in paraffin. Then they were cut in half and the liquid silicone was removed. The specimens were embedded again and cut into thin slices which were stained with H & E and Sirius red, and evaluated by light microscopy. Evaluation was done according to the following criteria:
A1: none; A2: occasional monocytic cells or lymphocytes; A3: moderate numbers or groups of monocytic cells or lymphocytes; A4: dense infiltration of monocytes, eosinophils, or giant cells.
B1: none; B2: collagen-rich layer around the implant; B3: thick (>1 mm) and dense collagen-rich tissue formation around the implant.
In every 10th serial section 10 fields of view uniformly distributed over the circumference of the implant were evaluated and the herein predominant expression was assigned to an event table. In total, 200 fields of view were analyzed per implant

[3] = test system: ovarian tissue strips; assay: Cryopreservation of ovarian tissue strips: intact follicles; conditions: liquid nitrogen 14 days, cultured 14 days
[4] = test system: HeLa, HUVEC and L929 fibroblast; assay: cells; assay type: cell-based
Experimental: Physiologically occurring phospholipids can be taken up by virtually all cell lines in large quantities. It is known that phospholipids that contain non-physiologically occurring fatty acid residues can cause cell lyses or death. Three cell lines (HeLa, HUVEC and L929 fibroblast) were cultured in a suitable culture medium of 5% FCS at 37° C. and 5% CO2 concentrations to a subconfluent concentration of 1.5×10^5 cells.
SOPC, DOPC, POPC, ONOPC, PNLPC, and the free fatty acids of OA, LA, NOOA, and NOLA were dissolved in 0.5% DMSO. […] Cell cultures were incubated for 24 h and 48 h. Thereafter, the culture medium was removed and the cells washed twice. Following this, cells suspensions were given in four vials to perform the following analysis:
For the determination of viability, phenol red was added to the suspended cells. After 4 h, the medium was renewed and 10 μl of the MTT solution was added. The cells were cultured for 4 hours, and then a 10% SDS solution was pipetted. After 24 h, absorption of formazan crystals was measured at 500 nm using a power wave X (bio-tek instruments, Inc., USA). For the quantitative comparison of toxicity, the EC50 was determined.

[5] = test system: TRPV1, 2 and 4, TRPA1; assay: Inducible ion current of TRP receptors in Xenopus oocytes (voltage clamp); assay type: cell-based, rat; conditions: 50 mmol/l, 10 and 60 minutes
Experimental: An established in-vitro model of Xenopus oocytes (Dascal N, 1987 The use of Xenopus oocytes. CRC critical reviews in biochemistry 22, 317-387) was used to study the influence of incubation with PL on ion channels regulated by membrane receptors. Defolliculized oocytes were transfected with cRNA (rat) of TRPV1, 2 and 4, as well as of TRPA1, stored in tissue culture plates and incubated in culture medium (ND 96) at 15° C. under constant motion in the incubator for 7 to 10 days.
Induced leakage currents through activation of the TRP receptors was determined by means of double electrode voltage-clamp technique (Ahern G P, Brooks I M, Miyares R L &Wang X B, 2005, Extracellular cations sensitize and gate capsaicin receptor TRPV1 modulating pain signalling. J Neurosci 25, 5109-5116). Ooocytes were probed with borosilicate glass capillaries (Clark) and connected to a feedback amplifier (Gene clamp Amplifier, Axon instruments). The membrane potential of oocytes was clamped to −60 or −90 mV. The presence of a directive […] current was compared to non-transfected controls. The investigations were performed in a miniature organ bath in calcium-free buffered (Hepes, pH 7.3) NaCl solution. The TRPV1 receptor excitation was initiated by rapidly changing of the bath solution against a capsaicin solution (10 μmol). Results of non-pretreated oocytes were used for normative comparison of subsequent measurements of incubatesd cells. Investigations with incubated cells were carried out in the same way for oocytes transfected with the TRPV2, and TRPV4 and TRPA1 receptors, wherein the receptor agonists cannabidiol (10 μmol) and 4α-PDD (4α-phorbol 12,13-didecanoate, 50 μmol) and innamaldehyde (50 μmol) were used instead of capsaicin.

[6] = test system: sciatic nerve; assay: Viability of cryopreserved nerve grafts (Annexin-V staining, FACS); assay type: cell-based, rats; conditions: 100 mmolar solution 1 hour, −30° C. 72 hours
Experimental: The sciatic nerve was prepared and sectured in anesthetized rats. The nerve pieces were freed from connective tissue and divided into 3 parts. Specimens were placed in culture DMEM medium containing low a concentration of glucose (1 g/L) with L-glutamine (PAA, Pasching Austria) for 24 hours. […] Nerve specimens from the same animals that received no pretreatment served as controls. After incubation, the specimens were cultured for 24 hours. In a further control group, specimens were cryopreserved without any pretreatment. The specimens were covered with a sterile gauze pad moistened with culture medium. Thereafter the temperature was gradually cooled to −30° C. After 72 hours, the nerve pieces were gradually rewarmed to 37° C. After this, renewed culturing was done for 48 hours. The nerve pieces were dissected enzymatically then (collagenase A and D, Roche, Mannheim, Germany) followed by a mechanical separation through multiple uptake and release in a glass pipette. The isolated cells were washed and marked with a living/death staining (Annexin-V-Fluos staining Kit, Roche Diagnostics, Mannheim, Germany) and quantified using FACS analysis. The number of living cells identified was set in relation to the total cells count.

[7] = Transisomerization of unsaturated fatty acids in coatings on balloon catheters (FTIR); assay type: physicochemical; conditions: for proportion of trans-fatty acids: after heat treatment (60° C., three hours)
From the text: The natural phospholipids POPC and SLPE, as well as the analogous nitrated phospholipids as shown in example C(PNOPC) and […]), as well as the phospholipids according to examples […], and S as a mono substance and as a combination of the native phospholipids and the corresponding nitro-carboxylic acid (s)-containing phospholipids mixed in a ratio of 1:1 were used for this investigation. Balloon catheters were coated by means of the Langmuir-Schaefer procedure where the balloon segment was aligned longitudinally and coaxial to the solution surface, dipping into the liquid for approx. 1 mm over the entire length. Then the catheter was slowly rotated around its axis 5 times. […] The solution was cooled and given to the coating solution then. In case of incomplete dissolution of the phospholipids or if they separated when cooled, DMSO was added at a concentration of up to 20 vol.-%, preferably up to 10 vol.-%. After coating, the catheters were vacuum dried for 8 hours in order to remove residual solvent. The abrasion or loss of coating layers was determined by weighing the catheter before and after coating as well as after the mechanical stability test in the tubing system as described above using a high precision balance. In order to examine the long-term stability of the coating, catheters coated with phospholipids were sealed with polyethylene glycol 1000 (Roth, Germany). For that purpose PEG 1000 was melted and mixed with a 10% ethanol solution at 50° C. A portion of the phospholipid-coated balloon catheter was coated by means of dip-coating in this PEG solution at 50° C., and dried thereafter for 8 hours. Stability of cis-conformity of unsaturated fatty acids of the phospholipids investigated was determined after heat treatment at 60° C. for three hours in a heating cabinet. After 24 hours and after 2 months the phospholipids coated on the balloon surface were detached and analyzed. Detachment was carried out in 50 ml of a chloroform:methanol mixture (3:1, v: v). A 10 μl aliquot was used for a FTIR spectroscopy. For this purpose the samples were dropped on a ZnSe ATR crystal and then the solvent was evaporated. Degree of transisomerization was determined using the integral of intensity of proton resonance in comparison to that measured from a cis configuration of the reference substances. Measurements were performed 24 hours after coating, heat treatment and after 2 months of storage at 25° C. under sterile room air conditions.

[8] = test system: cortical neurons; assay: Hypoxia and reperfusion of cortical neurons (viability, LDH); conditions: neurons and cardiac myocytes; 10 to 50 μmol/l
Experimental: To determine whether the membrane-stabilizing properties of nitrated phospholipids can lead to attenuation of effects due to an ischemic event or the re-perfusion damage, cortical neurons and cardiac myocytes were investigated.
Freshly prepared cortex tissue was separated with Papain and tissue suspensions were cultured in culture vessels (Prim ARA; BD Biosciences, USA) with Neurobasal A/B27 medium (Invitrogen) for 10-12 days. Cell suspensions were divided, and replenished with suspensions of the natural phospholipids SOPC and PLPC, as well as the analogue phospholipids with nitration of unsaturated fatty acids (1-stearoyl-2-(9-nitrooleoyl)-sn-PC and 1-palmitoyl-2-(9-nitrolinoleoyl)-sn-PC) at concentrations of 10 to 50 μmol/l in NaCl (0.9%) were added. […] After 4 hours, the cells were washed three times with buffered saline and buffered NaCl solution with the addition of MgCl2 and CaCl2 in an anaerobic atmosphere (85% N2, 5% O2, 10% CO2; at 35° C.) for 10 and 30 minutes. Then, the cells were washed once and grown in culture medium under aerobic conditions for 24 hours. […] Cells were stained with annexin V-FITC and propidium iodide (Molecular probes, USA). The vital and necrotic cells were measured by flow cytometry (FACSCalibur, Becton & Dickinson). The volume of culture medium was determined and an aliquot was taken for determination of the LDH (lactate dehydrogenase) concentration.

[9] = top coating with PEG, after 2 month

CCCCCCCC/C=C(\CCCCCCCC(=O)OC[C@H](COP(=O)(O)O)OC(=O)CCCCCCC/C(=C\CCCCCCCC)[N+](=O)[O-])[N+](=O)[O-] [Example G, 1,2-di-(9-nitrooleoyl)-sn-3-glycerophosphate]
mechanical removal of coating substance and workload to pull the catheter through PTFE tubing [1]: Very similar results | biocompatibility of coated implants compared to natural PLs [2]: improved biocompatibility of implants several-fold

1,2-di-(9-nitrolinoleoyl)-sn-3-glycerophosphocholine, 1,2-di-(10-nitrolinoleoyl)-sn-3-glycerophosphocholine, 1-(9-nitrolinoleoyl)-2-(10-nitrolinoleoyl)-sn-3-glycerophosphocholine and 1-(10-nitrolinoleoyl)-2-(9-nitrolinoleoyl)-sn-3-glycerophosphocholine [Example N1]
mechanical removal of coating substance and workload to pull the catheter through PTFE tubing [1]: Very similar results | rate of intact follicles relative to the control group [3]: 93%

CCCCCCCC/C=C\CCCCCCCC(=O)OC[C@H](COP(=O)([O-])OCC[N+](C)(C)C)OC(=O)CCCCCCC/C(=C\CCCCCCCC)[N+](=O)[O-] [Example P15, 1-oleoyl-2-(E-9-nitrooleoyl)-sn-3-glycerophosphocholine]
total viability (MTT assay) [4]: 83% | EC50 ([4]; after 48 hours, range over cell lines, read-out: EC50 (MTT assay)): 0.8 to 5 mM

CCCCCCCCC=C(CCCCCCCC(=O)OC[C@H](COP(=O)(O)OC[C@H](N)C(=O)O)OC(=O)CCCCCCCC(=CCCCCCCCC)[N+](=O)[O-])[N+](=O)[O-] [Example E, 1,2-di-(9-nitrooleoyl)-sn-3-glycerophosphatidylserine]
mechanical removal of coating substance and workload to pull the catheter through PTFE tubing [1]: Very similar results | inducible membrane channel activity of TRP channels [5]: significant decrease of inducible membrane channel activity

CC/C=C(\C/C=C\C/C=C\CCCCCCCC(=O)O[C@H](COC(=O)CCCCCCC/C=C\C/C=C\CCCCC)COP(=O)([O-])OCC[N+](C)(C)C)[N+](=O)[O-] [Example P12, 1-linoleoyl-2-(E-15-nitro-α-linolenoyl)-sn-3-glycerophosphocholine]
biocompatibility of coated implants compared to natural PLs [2]: improved biocompatibility of implants several-fold | rate of intact follicles relative to the control group [3]: 91%

1,2-di-(9-nitrolinoleoyl)-sn-3-glycerophosphocholine, 1,2-di-(10-nitrolinoleoyl)-sn-3-glycerophosphocholine, 1-(9-nitrolinoleoyl)-2-(10-nitrolinoleoyl)-sn-3-glycerophosphocholine and 1-(10-nitrolinoleoyl)-2-(9-nitrolinoleoyl)-sn-3-glycerophosphocholine [Example N8]
biocompatibility of coated implants compared to natural PLs [2]: improved biocompatibility of implants several-fold

1-stearoyl-2-(10-nitrolinoleoyl)-sn-3-glycerophosphocholine and 1-stearoyl-2-(9-nitrolinoleoyl)-sn-3-glycerophosphocholine [Example P2]
mechanical removal of coating substance and workload to pull the catheter through PTFE tubing [1]: Very similar results | biocompatibility of coated implants compared to natural PLs [2]: improved biocompatibility of implants several-fold | rate of intact follicles relative to the control group [3]: 85% | proportion of living cells relative to non-frozen control [6]: 82%

CCCCC/C=C\C/C=C\CCCCCCCC(=O)O[C@H](COC(=O)CCCCCCCCCCCCCCCCC)COP(=O)(O)OCCN [SLPE, 1-Stearoyl-2-linoleoyl-sn-3-glycero-phosphatidylethanolamine, reference compound]
proportion of trans-fatty acids [7]: 86% | degree of transisomerization ([7]; coatings after 2 months): 98% | degree of transisomerization [7, 9]: 92% | proportion of living cells relative to non-frozen control [6]: 15%

1-(5,8,11-eicosatrienoyl)-2-(9-nitro-α-linolenoyl)-sn-3-glycerophosphocholine and 1-(5,8,11-eicosatrienoyl)-2-(10-nitro-α-linolenoyl)-sn-3-glycerophosphocholine [Example P5]
mechanical removal of coating substance and workload to pull the catheter through PTFE tubing [1]: Very similar results | rate of intact follicles relative to the control group [3]: 90%

CCCCCCCC/C=C(\CCCCCCCC(=O)O[C@H](COC(=O)CCCCCCCCCCCCCCC)COP(=O)([O-])OCC[N+](C)(C)C)[N+](=O)[O-] [Example P8, 1-palmitoyl-2-(E-9-nitrooleoyl)-sn-3-glycerophosphocholine]
rate of intact follicles relative to the control group [3]: 96% | inducible membrane channel activity of TRP channels [5]: significant decrease of inducible membrane channel activity

CCCCC/C=C\C/C=C(\CCCCCCCC(=O)O[C@H](COC(=O)CCCCCCCCCCCCCCCCC)COP(=O)(O)OCCN)[N+](=O)[O-] [Example R, 1-Stearoyl-2-(E-9-nitrolinoleoyl)-sn-3-glycerophosphatidylethanolamine]
biocompatibility of coated implants compared to natural PLs [2]: improved biocompatibility of implants several-fold | proportion of trans-fatty acids [7]: 28% | degree of transisomerization ([7]; coatings after 2 months): 32% | degree of transisomerization [7, 9]: 33% | proportion of living cells relative to non-frozen control [6]: 75% | proportion of living cells relative to non-frozen control ([6]; listed as SNLPE): 80%

CCCCCCCCC(O)C(CCCCCCCC(=O)OC[C@H](COP(=O)([O-])OCC[N+](C)(C)C)OC(=O)CCCCCCCC(C(O)CCCCCCCC)[N+](=O)[O-])[N+](=O)[O-] (some centres unmarked) [Example O1, 1,2-di-(9-nitro-10-hydroxy-stearoyl)-sn-3-glycerophosphocholine]
mechanical removal of coating substance and workload to pull the catheter through PTFE tubing [1]: Very similar results | results of the hypoxia experiments compared with reference nitrated phospholipids [8]: slightly worse results

CCCCCCCC/C=C(\CCCCCCCC(=O)O[C@H](COC(=O)CCCCCCCCCCCCCCC)COP(=O)([O-])OCC[N+](C)(C)C)[N+](=O)[O-] [Example C, (E)-1-Palmitoyl-2-(9-nitrooleoyl)-sn-3-glycerophosphocholine]
proportion of trans-fatty acids [7]: 25% | degree of transisomerization ([7]; coatings after 2 months): 30% | degree of transisomerization [7, 9]: 32% | results of the hypoxia experiments compared with reference nitrated phospholipids [8]: did not show relevant differences
